Columns and labels:
Format in all cases: in vivo
[1] = tested on: mice; experiment: Hypercalcemia assay: murine hypercalcemia model, single SC injection, blood ionized calcium
Protocol: Mice were challenged with vehicle (PBS, —X—), or with PTH-(1-34) (open symbols) or with PTH-(1-34)-Fc (closed symbols). Doses were 156 nmol/kg (circles), 469 nmol/kg (triangles) or 1,560 nmol/kg (squares). Data represent group means, n=6 mice/group.
We tested the potency and duration of effect of PTH-(1-34)-Fc in a murine hypercalcemia model. Briefly, mice were injected once SC with varying doses of PTH-(1-34) or PTH-(1-34)-Fc, and peripheral blood was collected from the retroorbital sinus for determination of blood ionized calcium. The half-life and the potency of PTH-(1-34)-Fc was greater than that of PTH-(1-34), as evidenced by the sustained hypercalcemic response of mice to the former agent (FIG. 4). Hypercalcemia induced by PTH-(1-34) persisted for 6-24 h, while equimolar doses of PTH-(1-34)-Fc caused more sustained hypercalcemia (48-72 h). This duration of response is consistent with greater half-life of the PTH-(1-34)-Fc construct vs. PTH-(1-34).

[2] = tested on: mice; experiment: Chronic hypercalcemia induced by PTH-(1-34)-Fc challenge, antagonist given SC; conditions: 30 mg/kg single SC, 24 h post challenge, vehicle-treated normal mice (normal control 1.35); the values are: blood ionized calcium
Protocol: Normal male mice were challenged once by SC injection with PTH-(1-34)-Fc (30 mg/kg) (open circles), or with vehicle (PBS, open squares). Some PTH-(1-34)-Fc-challenged mice were treated once, at the time of challenge, with [Asn10,Leu11]PTHrP-(7-34)-Fc at 10 (closed triangle), 30 (closed circle), or 100 mg/kg (closed square). […] Data represent means±SEM, n=5 mice/group.
In order to test the ability of [Asn10,Leu11]PTHrP-(7-34)-Fc to antagonize more chronic hypercalcemia, we used PTH-(1-34)-Fc as a long-acting calcemic agent. This study also represents a model for primary and secondary hyperparathyroidism, diseases which are characterized by persistent elevation of PTH levels. In vehicle-treated mice, a single SC injection of PTH-(1-34)-Fc (30 mg/kg) caused a robust hypercalcemic response in normal mice, reaching a level of 2.75 mg/dl at 24 h post challenge (vs. normal control value of 1.35).

[3] = tested on: male BDF1 mice; experiment: Monotherapy in adult mice: twice-weekly PTH-(1-34)-Fc versus daily PTH-(1-34), tibial BMD by pQCT
Protocol: Daily PTH [PTH-(1-34)] was given at 80 μg/kg/day (20 nmol/kg/day).
Briefly, male BDF1 mice (4 months of age) were treated twice per week by subcutaneous injection with various doses of PTH-(1-34)-Fc or with vehicle (PBS). Other mice were treated daily with SC injections of PTH-(1-34) at a dose of 80 μg/kg/day (20 nmol/kg/day), a treatment regimen which is optimal for increasing bone mass in rodents (M. Gunness-Hey and J. M. Hock, Metab. Bone Dis. & Rel. Res. 5:177-181, 1984). After 3 weeks, mice were sacrificed and tibiae were analyzed for bone mineral density (BMD) via pQCT (FIG. 10).

[4] = tested on: Sprague Dawley (SD) rats; experiment: Anabolic assay: lumbar (L3) BMD by DEXA, PTH constructs with or without OPG-Fc; conditions: 6-month-old male SD rats, DEXA Day 7; OPG-Fc 1 mg/kg once; PTH-(1-34) 20 nMoles/kg x3; PTH-(1-34)-Fc 60 nMoles/kg once
Protocol: Briefly, 6-month-old male Sprague Dawley (SD) rats were divided into groups of 6. Baseline bone mineral density (BMD) was determined in the third lumbar vertebra (L3) of all rats by dual-energy X-ray absorptiometry (DEXA) (Day 0). Rats were then treated according to the following schedule:
Group 1: Vehicle controls (PBS, injected SC, Days 1, 3, and 5)
Group 2: OPG-Fc, single SC injection (1 mg/kg) on Day 1
Group 3: PTH-(1-34), SC injections on Days 1, 3, and 5, at 20 nMoles PTH/kg/injection. This represents an optimal anabolic PTH regimen.
Group 4: Same as group 3, but with a single OPG-Fc injection on Day 1.
Group 5: Single SC injection of PTH-(1-34)-Fc at 60 nMoles/kg, on Day 1. This represents a molar dose which is equivalent to the total dose of PTH-(1-34) received by group 3, but in a single injection.
Group 6: Same as group 5, but with a single OPG-Fc injection (SC, 1 mg/kg) on Day 1.
DEXA of the lumbar spine was performed again on Day 7 to evaluate changes in BMD. […] The anabolic effect of a single treatment with PTH-(1-34)-Fc plus OPG-Fc was greater than that induced by multiple injections of PTH-(1-34), with or without OPG-Fc co-treatment.
Normal 6 month old male rats were treated with PTH-Fc or PTH or vehicle by a single SC injection. Some rats also received a single SC injection of OPG. BMD was determined 7 days later by DEXA. Data represent means+SD, N=6 rats/group.

[5] = tested on: OVX cynomolgus monkeys; experiment: Single subcutaneous injection into OVX cynomolgus monkeys, serum total calcium
Protocol: Monkeys were injected with PTH-(1-34)-Fc at doses of 1-30 μg/kg (n=1/group) or 100-1000 μg/kg (n=2/group). Serum was analyzed for total calcium. The dotted line indicates the threshold for hypercalcemia, based on an elevation of calcium greater than three standard deviations above the normal mean, on two or more consecutive timepoints.
The optimal dosing of primates may be less frequent compared to rats or mice. Weekly (or less frequent) dosing may be optimal in primates, based on the observation that the hypercalcemic response of OVX cynomolgus monkeys to a single subcutaneous injection of PTH-(1-34)-Fc (10-34 nmol/kg) persisted for about 168 hours (FIG. 11).

[6] = 3 weeks, PTH-(1-34) daily 80 μg/kg/day, PTH-(1-34)-Fc twice weekly, various doses
[7] = two highest doses, 50 and 150 nmol/kg twice weekly

PTH-(1-34)-Fc: human PTH-(1-34), SVSEIQLMHNLGKHLNSMERVEWLRKKLQDVHNF, linked at its C-terminus to an Fc domain
peak ionized calcium levels compared with an equimolar dose of PTH-(1-34) ([1]; highest dose): greater increase in peak ionized calcium levels
hypercalcemic response (area under the curve) relative to equimolar PTH-(1-34) ([1]; highest dose employed): 2.6 fold
potency compared with PTH-(1-34) ([1]; hypercalcemic response): significantly greater
duration of hypercalcemia ([1]; single SC injection, equimolar doses, blood ionized calcium): 48 to 72 h
level reached in hypercalcemic response [2]: 2.75 mM
cancellous BMD compared to vehicle [3, 6]: dose-dependent increases
total tibial BMD compared to vehicle [3, 6]: dose-dependent increases
cortical BMD in the tibia ([3]; 3 weeks, PTH-(1-34) daily, PTH-(1-34)-Fc twice weekly, various doses): dose-dependent increase
bone density and bone volume compared to daily PTH-(1-34) ([3]; adult mice, twice weekly dosing): greater increases in bone density and bone volume
cortical BMD versus vehicle or daily PTH-(1-34) ([3]; highest dose twice weekly, p<0.05): significantly greater
cancellous BMD versus vehicle or daily PTH-(1-34) [3, 7]: significantly greater
total BMD versus vehicle or daily PTH-(1-34) [3, 7]: significantly greater
BMD in L3 compared to PBS-treated rats [4]: failed to increase BMD
time within which a single subcutaneous dose is cleared ([5]; primates, inferred from calcemic response): ≤ 1 week
persistence of hypercalcemic response ([5]; single subcutaneous injection 10-34 nmol/kg): about 168 hours

Reference: patent US6756480B2, “Modulators of receptors for parathyroid hormone and parathyroid hormone-related protein” (Amgen Inc., priority 2000, dated 2004)
